Active and inactive are the calls of the source. The calls are words filed in the database; no cut-off is given here.
Columns and labels:
[1] = target: Glutathione S-transferase P (Homo sapiens) (UniProt P09211); test: Binding affinity to GSTP1 in human DOHH-2 cells by MS analysis; type: cell-based
DOHH-2 [2] = test: Induction of apoptosis in human DOHH-2 cells assessed as increase in cleaved PARP expression at 8 uM measured after 4 to 24 hrs by Western blot analysis; type: functional, cell-based; conditions: time 4-24 hrs
DOHH-2 [3] = test: Cytotoxicity against human DOHH-2 cells measured after 72 hrs; type: functional, cell-based
DOHH-2 [4] = test: Up regulation of HSP90alpha expression in human DOHH-2 cells at 8 uM measured after 4 to 24 hrs by Western blot analysis; type: functional, cell-based; conditions: time 4-24 hrs
[5] = target: T1, Glutathione S-transferase omega-1 (Homo sapiens) (UniProt P78417); test: Binding affinity to GSTO1 in human DOHH-2 cells measured after 6 hrs by pull-down assay; type: cell-based; conditions: DDE = dose-dependent effect
T1 sequence (whole entry): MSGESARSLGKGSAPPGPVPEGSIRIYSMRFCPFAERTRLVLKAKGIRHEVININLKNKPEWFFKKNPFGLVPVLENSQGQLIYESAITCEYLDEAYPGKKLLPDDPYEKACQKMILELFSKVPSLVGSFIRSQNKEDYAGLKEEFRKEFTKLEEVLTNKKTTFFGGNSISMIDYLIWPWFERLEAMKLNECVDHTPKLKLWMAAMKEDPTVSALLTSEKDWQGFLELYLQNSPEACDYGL

[6] = target: T2, Protein disulfide-isomerase A6 (Homo sapiens) (UniProt Q15084); test: Binding affinity to PDIA6 in human MDA-MB-453 cells measured after 6 hrs by pull-down assay; type: cell-based; conditions: dose <= 20.0 µM, DDE = dose-dependent effect
T2 sequence (whole entry): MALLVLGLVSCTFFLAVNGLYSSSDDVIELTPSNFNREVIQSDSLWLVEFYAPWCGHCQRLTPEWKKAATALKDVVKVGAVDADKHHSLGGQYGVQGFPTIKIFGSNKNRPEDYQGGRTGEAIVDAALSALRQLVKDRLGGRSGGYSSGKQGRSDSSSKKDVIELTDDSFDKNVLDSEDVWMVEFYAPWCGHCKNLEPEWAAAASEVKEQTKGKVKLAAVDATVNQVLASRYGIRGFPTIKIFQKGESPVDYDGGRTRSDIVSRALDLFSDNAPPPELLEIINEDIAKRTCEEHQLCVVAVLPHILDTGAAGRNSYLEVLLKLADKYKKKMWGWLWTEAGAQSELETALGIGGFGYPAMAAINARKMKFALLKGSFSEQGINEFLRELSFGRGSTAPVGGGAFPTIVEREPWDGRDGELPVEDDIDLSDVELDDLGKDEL

[7] = GSH reactivity in pH 7.4 buffer assessed as GSH adduct formation by measuring half life at 50 uM by near-UV absorbance spectra analysis; type: physicochemical; conditions: pH 7.4, 50 µM
[8] = target: T3, Peroxiredoxin-1 (Homo sapiens) (UniProt Q06830); test: Binding affinity to PRDX1 in human DOHH-2 cells by MS analysis; type: cell-based
T3 sequence (whole entry): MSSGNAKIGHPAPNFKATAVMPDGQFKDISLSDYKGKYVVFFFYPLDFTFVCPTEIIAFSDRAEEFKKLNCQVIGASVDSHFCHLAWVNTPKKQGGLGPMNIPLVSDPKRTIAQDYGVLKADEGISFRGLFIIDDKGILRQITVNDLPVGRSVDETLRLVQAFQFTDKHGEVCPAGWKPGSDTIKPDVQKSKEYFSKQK

[9] = target: T1, Glutathione S-transferase omega-1 (Homo sapiens); test: Binding affinity to GSTO1 in human MDA-MB-453 cells measured after 6 hrs by pull-down assay; type: cell-based; conditions: dose <= 20.0 µM, DDE = dose-dependent effect
[10] = target: T4, Peroxiredoxin-6 (Homo sapiens) (UniProt P30041); test: Binding affinity to PRDX6 in human MDA-MB-453 cells measured after 6 hrs by pull-down assay; type: cell-based; conditions: dose <= 20.0 µM, DDE = dose-dependent effect
T4 sequence (whole entry): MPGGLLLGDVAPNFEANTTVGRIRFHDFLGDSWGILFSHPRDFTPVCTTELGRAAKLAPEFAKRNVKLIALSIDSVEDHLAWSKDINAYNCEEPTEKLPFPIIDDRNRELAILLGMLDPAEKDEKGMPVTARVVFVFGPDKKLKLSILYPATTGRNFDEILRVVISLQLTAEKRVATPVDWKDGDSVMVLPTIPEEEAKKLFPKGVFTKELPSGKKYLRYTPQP

[11] = target: Coronin-1A (Homo sapiens) (UniProt P31146); test: Binding affinity to coronin-1A in human DOHH-2 cells by MS analysis; type: cell-based
Coronin-1A (Homo sapiens), sequence (P31146 whole entry): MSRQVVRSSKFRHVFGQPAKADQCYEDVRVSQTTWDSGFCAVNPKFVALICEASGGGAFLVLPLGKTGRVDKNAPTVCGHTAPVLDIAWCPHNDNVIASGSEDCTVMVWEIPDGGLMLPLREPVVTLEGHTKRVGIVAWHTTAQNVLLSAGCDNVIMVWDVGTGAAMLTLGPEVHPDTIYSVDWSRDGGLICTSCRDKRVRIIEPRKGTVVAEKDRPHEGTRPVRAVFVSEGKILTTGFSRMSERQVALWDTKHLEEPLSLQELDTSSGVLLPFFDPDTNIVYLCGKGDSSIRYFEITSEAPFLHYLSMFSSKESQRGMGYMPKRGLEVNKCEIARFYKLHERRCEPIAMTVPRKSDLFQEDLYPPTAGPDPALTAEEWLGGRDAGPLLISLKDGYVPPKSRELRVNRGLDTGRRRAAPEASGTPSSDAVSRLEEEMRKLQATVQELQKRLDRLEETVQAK

[12] = target: Glutathione S-transferase 3, mitochondrial (Homo sapiens) (UniProt O14880); test: Binding affinity to MGST3 in human DOHH-2 cells by MS analysis; type: cell-based
Glutathione S-transferase 3, mitochondrial (Homo sapiens), sequence (O14880 whole entry): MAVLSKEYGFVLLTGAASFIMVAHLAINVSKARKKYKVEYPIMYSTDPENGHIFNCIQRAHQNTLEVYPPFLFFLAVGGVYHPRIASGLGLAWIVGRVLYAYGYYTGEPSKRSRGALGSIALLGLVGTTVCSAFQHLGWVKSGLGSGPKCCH

[13] = target: T5, Protein disulfide-isomerase A3 (Homo sapiens) (UniProt P30101); test: Binding affinity to PDIA3 in human DOHH-2 cells measured after 6 hrs by pull-down assay; type: cell-based; conditions: DDE = dose-dependent effect
T5 sequence (whole entry): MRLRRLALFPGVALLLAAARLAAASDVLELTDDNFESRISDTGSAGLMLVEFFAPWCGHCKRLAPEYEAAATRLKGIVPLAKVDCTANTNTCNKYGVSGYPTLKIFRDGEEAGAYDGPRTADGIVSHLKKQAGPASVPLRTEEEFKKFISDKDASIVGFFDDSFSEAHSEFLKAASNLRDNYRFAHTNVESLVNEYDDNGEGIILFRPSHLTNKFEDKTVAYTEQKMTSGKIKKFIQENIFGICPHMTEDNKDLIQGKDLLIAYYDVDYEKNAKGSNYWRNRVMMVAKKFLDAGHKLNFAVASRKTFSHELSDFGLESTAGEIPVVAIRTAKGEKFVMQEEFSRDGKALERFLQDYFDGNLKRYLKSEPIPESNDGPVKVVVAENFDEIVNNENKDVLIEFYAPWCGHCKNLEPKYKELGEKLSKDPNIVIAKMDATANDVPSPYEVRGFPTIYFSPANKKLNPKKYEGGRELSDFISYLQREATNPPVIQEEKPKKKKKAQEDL

[14] = target: T4, Peroxiredoxin-6 (Homo sapiens); test: Binding affinity to PRDX6 in human DOHH-2 cells measured after 6 hrs by pull-down assay; type: cell-based; conditions: DDE = dose-dependent effect
[15] = target: T1, Glutathione S-transferase omega-1 (Homo sapiens); test: Binding affinity to GSTO1 in human DOHH-2 cells by MS analysis; type: cell-based
[16] = target: T3, Peroxiredoxin-1 (Homo sapiens); test: Binding affinity to PRDX1 in human MDA-MB-453 cells measured after 6 hrs by pull-down assay; type: cell-based; conditions: dose <= 20.0 µM, DDE = dose-dependent effect
[17] = target: Elongation factor 2 (Homo sapiens) (UniProt P13639); test: Binding affinity to elongation factor 2 in human DOHH-2 cells by MS analysis; type: cell-based

Glutathione S-transferase P (Homo sapiens), sequence (P09211 2-210 limits assumed): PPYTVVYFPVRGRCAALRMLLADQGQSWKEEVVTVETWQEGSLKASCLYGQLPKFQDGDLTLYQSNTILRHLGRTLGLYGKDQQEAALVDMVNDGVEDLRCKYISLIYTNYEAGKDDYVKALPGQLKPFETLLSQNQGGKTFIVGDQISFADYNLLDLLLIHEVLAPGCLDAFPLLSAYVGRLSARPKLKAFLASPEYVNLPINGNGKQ

C#Cc1cccc(C#CS(N)(=O)=O)c1
Activity [1]: Active
Activity (DOHH-2 [2]): Active
Activity (DOHH-2 [3]): Active
Activity (DOHH-2 [4]): Active
Activity [5]: Dde
Activity [6]: Dde
t1/2 [7]: 3.91 min
Activity [8]: Active
Activity [9]: Dde
Activity [10]: Dde
Activity [11]: Active
Activity [12]: Active
Activity [13]: Dde
Activity [14]: Dde
Activity [15]: Active
Activity [16]: Dde
Activity [17]: Active
